Test results from the supplement of paper PMC10307832.

Columns and labels:
Test in all cases: relative viability (nuclei count vs DMSO), 5 days (fraction); higher = more cells survive
A549 = system: A549
Method in brief: (§1)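 Lung cancer cell lines were pin-tool dosed in 1536-well plates on the day after seeding, with either a lone drug or a fixed anchor-drug dose plus five library-drug doses (not always all listed) in √10 steps. Nuclei were counted on 4× images after 5 days. Relative viability is the ratio of treated-well to vehicle-well nuclei counts, with each value a median of duplicate plates.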

NCI-H2009 = system: NCI-H2009
Method in brief: as §1

NCI-H661 = system: NCI-H661
Method in brief: as §1

NCI-H1703 = system: NCI-H1703
Method in brief: as §1

EBC-1 = system: EBC-1
Method in brief: as §1

IA-LM = system: IA-LM
Method in brief: as §1

NCI-H460 = system: NCI-H460
Method in brief: as §1

Calu-6 = system: Calu-6
Method in brief: as §1

NCI-H1299 = system: NCI-H1299
Method in brief: as §1

HCC-78 = system: HCC-78
Method in brief: as §1

CCN(CC)CCCCNc1ncc2cc(-c3cc(OC)cc(OC)c3)c(NC(=O)NC(C)(C)C)nc2n1 + Cc1nc(NC(=O)N2CCC[C@H]2C(N)=O)sc1-c1ccnc(C(C)(C)C(F)(F)F)c1 [Alpelisib] (partner 2 µM)
relative viability (A549; first compound 0.01 µM): 0.726
relative viability (A549; first compound 0.03162 µM): 0.801
relative viability (A549; first compound 0.1 µM): 0.985
relative viability (A549; first compound 0.3162 µM): 0.828
relative viability (A549; first compound 1 µM): 0.57
relative viability (NCI-H2009; first compound 0.01 µM): 1.15
relative viability (NCI-H2009; first compound 0.03162 µM): 1.14
relative viability (NCI-H2009; first compound 0.1 µM): 1.24
relative viability (NCI-H2009; first compound 0.3162 µM): 1.18
relative viability (NCI-H2009; first compound 1 µM): 1.16
relative viability (NCI-H661; first compound 0.01 µM): 0.537
relative viability (NCI-H661; first compound 0.03162 µM): 0.382
relative viability (NCI-H661; first compound 0.1 µM): 0.657
relative viability (NCI-H661; first compound 0.3162 µM): 0.858
relative viability (NCI-H661; first compound 1 µM): 0.535
relative viability (NCI-H1703; first compound 0.01 µM): 0.262
relative viability (NCI-H1703; first compound 0.1 µM): 0.397
relative viability (NCI-H1703; first compound 0.3162 µM): 0.45
relative viability (NCI-H1703; first compound 1 µM): 0.292
relative viability (EBC-1; first compound 0.01 µM): 0.831
relative viability (EBC-1; first compound 0.03162 µM): 0.887
relative viability (EBC-1; first compound 0.1 µM): 0.965
relative viability (EBC-1; first compound 0.3162 µM): 0.918
relative viability (EBC-1; first compound 1 µM): 0.664
relative viability (IA-LM; first compound 0.01 µM): 0.62
relative viability (IA-LM; first compound 0.03162 µM): 0.659
relative viability (IA-LM; first compound 0.1 µM): 0.672
relative viability (IA-LM; first compound 0.3162 µM): 0.836
relative viability (IA-LM; first compound 1 µM): 0.597
relative viability (NCI-H460; first compound 0.01 µM): 0.646
relative viability (NCI-H460; first compound 0.03162 µM): 0.58
relative viability (NCI-H460; first compound 0.1 µM): 0.82
relative viability (NCI-H460; first compound 0.3162 µM): 0.463
relative viability (NCI-H460; first compound 1 µM): 0.399
relative viability (Calu-6; first compound 0.01 µM): 1
relative viability (Calu-6; first compound 0.03162 µM): 0.996
relative viability (Calu-6; first compound 0.1 µM): 0.868
relative viability (Calu-6; first compound 0.3162 µM): 1.09
relative viability (Calu-6; first compound 1 µM): 1.01
relative viability (NCI-H1299; first compound 0.01 µM): 1.12
relative viability (NCI-H1299; first compound 0.03162 µM): 1.12
relative viability (NCI-H1299; first compound 0.1 µM): 1.08
relative viability (NCI-H1299; first compound 0.3162 µM): 1.04
relative viability (NCI-H1299; first compound 1 µM): 1.04
relative viability (HCC-78; first compound 0.03162 µM): 0.255
relative viability (HCC-78; first compound 0.1 µM): 0.308
relative viability (HCC-78; first compound 0.3162 µM): 0.348
relative viability (HCC-78; first compound 1 µM): 0.303

COc1nc(C)cnc1NS(=O)(=O)c1cccnc1-c1ccc(-c2nnco2)cc1 [Zibotentan] + C[C@@H](Oc1cc(-c2cnn(C3CCNCC3)c2)cnc1N)c1c(Cl)ccc(F)c1Cl [Crizotinib] (partner 1 µM)
relative viability (A549; first compound 0.08 µM): 0.932
relative viability (A549; first compound 0.253 µM): 0.696
relative viability (A549; first compound 0.8 µM): 0.742
relative viability (A549; first compound 2.53 µM): 0.761
relative viability (NCI-H2009; first compound 0.08 µM): 1.05
relative viability (NCI-H2009; first compound 0.253 µM): 0.947
relative viability (NCI-H2009; first compound 0.8 µM): 0.995
relative viability (NCI-H2009; first compound 2.53 µM): 1.06
relative viability (NCI-H661; first compound 0.08 µM): 0.971
relative viability (NCI-H661; first compound 0.8 µM): 1.04
relative viability (NCI-H661; first compound 2.53 µM): 0.853
relative viability (NCI-H1703; first compound 0.08 µM): 0.722
relative viability (NCI-H1703; first compound 0.253 µM): 0.756
relative viability (NCI-H1703; first compound 0.8 µM): 0.864
relative viability (NCI-H1703; first compound 2.53 µM): 0.555
relative viability (EBC-1; first compound 0.08 µM): 0.176
relative viability (EBC-1; first compound 0.253 µM): 0.194
relative viability (EBC-1; first compound 0.8 µM): 0.202
relative viability (EBC-1; first compound 2.53 µM): 0.223
relative viability (IA-LM; first compound 0.08 µM): 0.809
relative viability (IA-LM; first compound 0.253 µM): 0.702
relative viability (IA-LM; first compound 0.8 µM): 1.1
relative viability (IA-LM; first compound 2.53 µM): 0.975
relative viability (NCI-H460; first compound 0.08 µM): 1.2
relative viability (NCI-H460; first compound 0.8 µM): 1.01
relative viability (NCI-H460; first compound 2.53 µM): 0.903
relative viability (Calu-6; first compound 0.08 µM): 0.854
relative viability (Calu-6; first compound 0.253 µM): 0.786
relative viability (Calu-6; first compound 0.8 µM): 0.741
relative viability (Calu-6; first compound 2.53 µM): 0.752
relative viability (NCI-H1299; first compound 0.08 µM): 0.949
relative viability (NCI-H1299; first compound 0.253 µM): 0.924
relative viability (NCI-H1299; first compound 0.8 µM): 0.95
relative viability (NCI-H1299; first compound 2.53 µM): 0.968
relative viability (HCC-78; first compound 0.08 µM): 0.336
relative viability (HCC-78; first compound 0.253 µM): 0.311
relative viability (HCC-78; first compound 0.8 µM): 0.324
relative viability (HCC-78; first compound 2.53 µM): 0.343

O=c1cc(N2CCOCC2)oc2c(-c3cccc4c3sc3ccccc34)cccc12 + Cc1nc(NC(=O)N2CCC[C@H]2C(N)=O)sc1-c1ccnc(C(C)(C)C(F)(F)F)c1 [Alpelisib] (partner 2 µM)
relative viability (A549; first compound 0.01 µM): 0.866
relative viability (A549; first compound 0.03162 µM): 0.775
relative viability (A549; first compound 0.1 µM): 0.814
relative viability (A549; first compound 0.3162 µM): 0.811
relative viability (A549; first compound 1 µM): 0.845
relative viability (NCI-H2009; first compound 0.01 µM): 1.12
relative viability (NCI-H2009; first compound 0.03162 µM): 1.14
relative viability (NCI-H2009; first compound 0.1 µM): 1.18
relative viability (NCI-H2009; first compound 0.3162 µM): 1.15
relative viability (NCI-H2009; first compound 1 µM): 1.13
relative viability (NCI-H661; first compound 0.01 µM): 0.556
relative viability (NCI-H661; first compound 0.03162 µM): 0.243
relative viability (NCI-H661; first compound 0.1 µM): 0.591
relative viability (NCI-H661; first compound 0.3162 µM): 0.606
relative viability (NCI-H661; first compound 1 µM): 0.506
relative viability (NCI-H1703; first compound 0.01 µM): 0.538
relative viability (NCI-H1703; first compound 0.03162 µM): 0.33
relative viability (NCI-H1703; first compound 0.1 µM): 0.331
relative viability (NCI-H1703; first compound 0.3162 µM): 0.317
relative viability (NCI-H1703; first compound 1 µM): 0.317
relative viability (EBC-1; first compound 0.01 µM): 0.977
relative viability (EBC-1; first compound 0.03162 µM): 0.77
relative viability (EBC-1; first compound 0.1 µM): 0.837
relative viability (EBC-1; first compound 0.3162 µM): 0.966
relative viability (EBC-1; first compound 1 µM): 0.827
relative viability (IA-LM; first compound 0.01 µM): 0.837
relative viability (IA-LM; first compound 0.03162 µM): 0.769
relative viability (IA-LM; first compound 0.1 µM): 0.828
relative viability (IA-LM; first compound 0.3162 µM): 0.736
relative viability (IA-LM; first compound 1 µM): 0.735
relative viability (NCI-H460; first compound 0.01 µM): 0.509
relative viability (NCI-H460; first compound 0.03162 µM): 0.502
relative viability (NCI-H460; first compound 0.1 µM): 0.495
relative viability (NCI-H460; first compound 0.3162 µM): 0.373
relative viability (NCI-H460; first compound 1 µM): 0.538
relative viability (Calu-6; first compound 0.01 µM): 0.98
relative viability (Calu-6; first compound 0.03162 µM): 1.05
relative viability (Calu-6; first compound 0.1 µM): 1.01
relative viability (Calu-6; first compound 0.3162 µM): 1.04
relative viability (Calu-6; first compound 1 µM): 0.974
relative viability (NCI-H1299; first compound 0.01 µM): 1.05
relative viability (NCI-H1299; first compound 0.03162 µM): 1.07
relative viability (NCI-H1299; first compound 0.1 µM): 1.11
relative viability (NCI-H1299; first compound 0.3162 µM): 1.09
relative viability (NCI-H1299; first compound 1 µM): 1.09
relative viability (HCC-78; first compound 0.01 µM): 0.374
relative viability (HCC-78; first compound 0.03162 µM): 0.305
relative viability (HCC-78; first compound 0.1 µM): 0.299
relative viability (HCC-78; first compound 0.3162 µM): 0.406
relative viability (HCC-78; first compound 1 µM): 0.331
